Laboratory results published in paper PMC9403976, “Elucidating the path to Plasmodium prolyl-tRNA synthetase inhibitors that overcome halofuginone resistance” (Nature Communications, 2022).
Where “and” joins values, the source holds several entries; their conditions need not be identical. Equal entries are not always repeated. Where two headings read alike, the source gives them in different places.

Tests used:
P. falciparum Dd2-2D4 = experiment: P. falciparum asexual blood stage (ABS) growth assay, SYBR Green, 72 h, wild-type parasites; format: cell-based, Plasmodium falciparum; conditions: Plasmodium falciparum, DD2; SI Fig 16b; values on -log scale; read-out: ABS - Dd2-2D4 (converted)
[1] = test system: halofuginone-induced P. falciparum (elevated proline homeostasis); experiment: P. falciparum ABS growth assay, SYBR Green, 72 h, halofuginone-induced parasites; format: cell-based, Plasmodium falciparum; conditions: for parasite growth, dose-response point: Halofuginone-Induced (HFG-Induced)
Method in brief: (§1)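 Asexual blood-stage Dd2 parasites, 1% parasitemia/1% hematocrit, RPMI + 0.5% Albumax; triplicate dose-response, 72 h. Readout SYBR Green 1 fluorescence. Controls: 10 μM dihydroartemisinin (kill), no compound (growth). EC50 values determined.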

[2] = test system: HFGR-I P. falciparum (elevated proline homeostasis and PfcProRS^L482H); experiment: P. falciparum ABS growth assay, SYBR Green, 72 h, HFGR-I parasites; format: cell-based, Plasmodium falciparum; conditions: HFGR-I
Method in brief: as §1

PfcProRS = target: T1, PfcProRS (Plasmodium falciparum, UniProt Q8I5R7); format: binding; conditions: for Normalized response, dose-response replicates (SI Fig 14): replicates 1-3, listed as MAT345 (30)
T1 construct: made in house; host or cells: E. coli SoluBL-21
T1 sequence (Q8I5R7 249-746): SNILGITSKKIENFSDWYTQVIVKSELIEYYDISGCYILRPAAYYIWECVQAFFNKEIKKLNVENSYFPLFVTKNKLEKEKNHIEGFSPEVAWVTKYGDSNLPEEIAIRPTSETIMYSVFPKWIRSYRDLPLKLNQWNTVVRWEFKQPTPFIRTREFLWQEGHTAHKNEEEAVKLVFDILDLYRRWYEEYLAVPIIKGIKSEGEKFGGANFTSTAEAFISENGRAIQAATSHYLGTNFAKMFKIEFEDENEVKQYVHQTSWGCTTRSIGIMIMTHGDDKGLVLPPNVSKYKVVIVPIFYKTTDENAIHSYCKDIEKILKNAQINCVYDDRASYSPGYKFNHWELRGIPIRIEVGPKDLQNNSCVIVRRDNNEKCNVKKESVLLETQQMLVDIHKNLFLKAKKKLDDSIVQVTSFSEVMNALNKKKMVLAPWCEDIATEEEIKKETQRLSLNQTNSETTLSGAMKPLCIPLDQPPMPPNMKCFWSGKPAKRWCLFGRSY

HsProRS = HsProRS (Homo sapiens, UniProt P07814); experiment: TR-FRET ligand displacement assay with tracer MAT379 (CoraFluor-1-Halo and anti-His6 antibody formats); format: binding; design: made in house; host or cells: E. coli SoluBL-21; conditions: for normalized TR-FRET signal (dose-response replicates): SI Fig 17a
Chain of HsProRS (P07814 996-1512): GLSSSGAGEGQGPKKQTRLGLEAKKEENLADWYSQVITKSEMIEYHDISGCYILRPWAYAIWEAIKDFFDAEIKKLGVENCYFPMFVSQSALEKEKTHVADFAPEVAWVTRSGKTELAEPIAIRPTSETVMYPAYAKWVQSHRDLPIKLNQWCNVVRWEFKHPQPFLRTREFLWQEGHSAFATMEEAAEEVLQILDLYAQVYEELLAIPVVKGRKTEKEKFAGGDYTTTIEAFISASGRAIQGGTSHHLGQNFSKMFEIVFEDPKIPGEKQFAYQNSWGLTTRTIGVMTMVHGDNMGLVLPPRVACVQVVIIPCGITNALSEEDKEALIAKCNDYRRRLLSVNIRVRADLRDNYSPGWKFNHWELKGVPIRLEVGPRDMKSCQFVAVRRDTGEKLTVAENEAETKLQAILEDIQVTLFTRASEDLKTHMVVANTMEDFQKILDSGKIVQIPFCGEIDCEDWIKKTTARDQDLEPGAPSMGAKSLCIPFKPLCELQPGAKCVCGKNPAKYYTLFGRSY

[3] = Log[inhibitor] (M) -5.000, series r16-r27

## O=C(NC1Cc2ccccc2C1)c1nccnc1NC(=O)N1CCC(CNC(=O)[C@@H]2CCCN2)CC1 [MAT345]
P. falciparum Dd2-2D4
  EC50: 249 nM
[1]; [3]
  parasite growth, dose-response point: 31 and 33
[1]; Log[inhibitor] (M) -5.408
  parasite growth, dose-response point: 83 and 82 and 78
[1]; Log[inhibitor] (M) -5.816
  parasite growth, dose-response point: 97 and 93 and 100
[1]; Log[inhibitor] (M) -6.222
  parasite growth, dose-response point: 102 and 100
[1]; Log[inhibitor] (M) -6.638
  parasite growth, dose-response point: 103 and 100 and 98
[1]; Log[inhibitor] (M) -7.046
  parasite growth, dose-response point: 102 and 103
[1]; Log[inhibitor] (M) -7.450
  parasite growth, dose-response point: 91 and 97
[1]; Log[inhibitor] (M) -7.854
  parasite growth, dose-response point: 96 and 99
[1]; Log[inhibitor] (M) -8.260
  parasite growth, dose-response point: 97 and 101
[1]; Log[inhibitor] (M) -8.699
  parasite growth, dose-response point: 95 and 97 and 96
[1]; Log[inhibitor] (M) -9.000
  parasite growth, dose-response point: 98 and 96
[1]; Log[inhibitor] (M) -9.488
  parasite growth, dose-response point: 97 and 99
[1]; vs wild-type Dd2-2D4
  fold decreased activity in halofuginone-induced and HFGR-I parasites: 20-to-40 fold
[2]; [3]
  parasite growth, dose-response point: 34 and 31 and 27
[2]; Log[inhibitor] (M) -5.408
  parasite growth, dose-response point: 80 and 82 and 78
[2]; Log[inhibitor] (M) -5.816
  parasite growth, dose-response point: 93 and 92 and 94
[2]; Log[inhibitor] (M) -6.222
  parasite growth, dose-response point: 97 and 95
[2]; Log[inhibitor] (M) -6.638
  parasite growth, dose-response point: 101 and 98 and 100
[2]; Log[inhibitor] (M) -7.046
  parasite growth, dose-response point: 98 and 100
[2]; Log[inhibitor] (M) -7.450
  parasite growth, dose-response point: 89 and 95 and 94
[2]; Log[inhibitor] (M) -7.854
  parasite growth, dose-response point: 93 and 91 and 94
[2]; Log[inhibitor] (M) -8.260
  parasite growth, dose-response point: 90 and 93 and 96
[2]; Log[inhibitor] (M) -8.699
  parasite growth, dose-response point: 97 and 94 and 92
[2]; Log[inhibitor] (M) -9.000
  parasite growth, dose-response point: 97 and 96 and 95
[2]; Log[inhibitor] (M) -9.488
  parasite growth, dose-response point: 95 and 102 and 96
PfcProRS; Log[inhibitor] (M) -5.041
  Normalized response, dose-response replicates (SI Fig 14): 4.37E-03 and 8.51E-02 and 8.45E-02
PfcProRS; Log[inhibitor] (M) -5.342
  Normalized response, dose-response replicates (SI Fig 14): 1.11E-01 and 8.97E-02 and 2.09E-01
PfcProRS; Log[inhibitor] (M) -5.642
  Normalized response, dose-response replicates (SI Fig 14): 2.13E-01 and 1.76E-01 and 2.03E-01
PfcProRS; Log[inhibitor] (M) -5.943
  Normalized response, dose-response replicates (SI Fig 14): 2.11E-01 and 3.53E-01 and 2.89E-01
PfcProRS; Log[inhibitor] (M) -6.244
  Normalized response, dose-response replicates (SI Fig 14): 5.69E-01 and 4.73E-01 and 4.91E-01
PfcProRS; Log[inhibitor] (M) -6.555
  Normalized response, dose-response replicates (SI Fig 14): 6.49E-01 and 6.64E-01 and 6.15E-01
PfcProRS; Log[inhibitor] (M) -6.837
  Normalized response, dose-response replicates (SI Fig 14): 7.67E-01 and 7.12E-01 and 8.75E-01
PfcProRS; Log[inhibitor] (M) -7.149
  Normalized response, dose-response replicates (SI Fig 14): 8.93E-01 and 9.71E-01 and 9.69E-01
PfcProRS; Log[inhibitor] (M) -7.447
  Normalized response, dose-response replicates (SI Fig 14): 1.04E+00 and 1.05E+00 and 9.75E-01
PfcProRS; Log[inhibitor] (M) -7.755
  Normalized response, dose-response replicates (SI Fig 14): 9.28E-01 and 9.14E-01 and 8.72E-01
PfcProRS; Log[inhibitor] (M) -8.041
  Normalized response, dose-response replicates (SI Fig 14): 1.06E+00 and 9.79E-01 and 1.02E+00
PfcProRS; Log[inhibitor] (M) -8.372
  Normalized response, dose-response replicates (SI Fig 14): 9.49E-01 and 9.57E-01 and 1.06E+00
PfcProRS; Log[inhibitor] (M) -8.615
  Normalized response, dose-response replicates (SI Fig 14): 1.07E+00 and 9.05E-01 and 1.02E+00
PfcProRS; Log[inhibitor] (M) -8.916
  Normalized response, dose-response replicates (SI Fig 14): 1.03E+00 and 9.82E-01 and 1.08E+00
PfcProRS; Log[inhibitor] (M) -9.217
  Normalized response, dose-response replicates (SI Fig 14): 9.85E-01 and 1.06E+00 and 9.97E-01
PfcProRS; SI Fig 16a, values on -log scale
  PfcProRS -- best Kd: 7.445
HsProRS; HsProRS (KD [nM]) + proline, 100 μM proline, 250 nM MAT379
  Kd: 282 nM
HsProRS; HsProRS - best Kd, SI Fig 16a, values on -log scale
  Kd: 140 nM
HsProRS; Log[inhibitor] (M) -5.642
  normalised signal, dose-response point (Fig 4d): 3.24E-02 and 2.70E-02 and 2.05E-02
  normalized TR-FRET signal (dose-response replicates): 9.59E-02 and 6.70E-02 and 9.33E-02
HsProRS; Log[inhibitor] (M) -6.244
  normalised signal, dose-response point (Fig 4d): 1.89E-01 and 2.26E-01 and 2.85E-01
  normalized TR-FRET signal (dose-response replicates): 2.09E-01 and 2.42E-01 and 2.50E-01
HsProRS; Log[inhibitor] (M) -6.555
  normalised signal, dose-response point (Fig 4d): 3.68E-01 and 3.01E-01 and 3.10E-01
  normalized TR-FRET signal (dose-response replicates): 3.66E-01 and 3.52E-01 and 3.76E-01
HsProRS; Log[inhibitor] (M) -6.837
  normalised signal, dose-response point (Fig 4d): 6.02E-01 and 6.04E-01 and 4.91E-01
  normalized TR-FRET signal (dose-response replicates): 5.21E-01 and 5.37E-01 and 4.85E-01
HsProRS; Log[inhibitor] (M) -7.149
  normalised signal, dose-response point (Fig 4d): 6.76E-01 and 6.99E-01 and 6.39E-01
  normalized TR-FRET signal (dose-response replicates): 7.07E-01 and 6.82E-01 and 6.73E-01
HsProRS; Log[inhibitor] (M) -7.447
  normalised signal, dose-response point (Fig 4d): 8.48E-01 and 8.28E-01 and 9.00E-01
  normalized TR-FRET signal (dose-response replicates): 7.81E-01 and 8.42E-01 and 8.20E-01
HsProRS; Log[inhibitor] (M) -7.755
  normalised signal, dose-response point (Fig 4d): 9.14E-01 and 8.69E-01 and 1.05E+00
  normalized TR-FRET signal (dose-response replicates): 9.07E-01 and 9.27E-01 and 8.91E-01
HsProRS; Log[inhibitor] (M) -8.041
  normalised signal, dose-response point (Fig 4d): 9.90E-01 and 1.01E+00 and 9.87E-01
  normalized TR-FRET signal (dose-response replicates): 9.57E-01 and 9.29E-01 and 9.81E-01
HsProRS; Log[inhibitor] (M) -8.372
  normalised signal, dose-response point (Fig 4d): 1.02E+00 and 1.03E+00 and 9.36E-01
  normalized TR-FRET signal (dose-response replicates): 9.20E-01 and 9.69E-01 and 9.64E-01
HsProRS; Log[inhibitor] (M) -8.615
  normalised signal, dose-response point (Fig 4d): 9.70E-01 and 1.01E+00 and 1.11E+00
  normalized TR-FRET signal (dose-response replicates): 9.77E-01 and 1.00E+00 and 1.02E+00
HsProRS; Log[inhibitor] (M) -8.916
  normalised signal, dose-response point (Fig 4d): 9.07E-01 and 1.05E+00 and 9.01E-01
  normalized TR-FRET signal (dose-response replicates): 9.89E-01 and 9.48E-01 and 9.78E-01
HsProRS; Log[inhibitor] (M) -9.217
  normalised signal, dose-response point (Fig 4d): 9.78E-01 and 9.88E-01 and 9.92E-01
  normalized TR-FRET signal (dose-response replicates): 1.04E+00 (2×) and 1.05E+00
HsProRS; Log[inhibitor] (M) -5.041
  normalized TR-FRET signal (dose-response replicates): 4.56E-02 and 1.07E-02 and 1.68E-02
HsProRS; Log[inhibitor] (M) -5.342
  normalized TR-FRET signal (dose-response replicates): 5.17E-02 and 5.07E-02 and 8.15E-02
HsProRS; Log[inhibitor] (M) -5.943
  normalized TR-FRET signal (dose-response replicates): 1.49E-01 and 1.16E-01 and 1.17E-01
